Laboratory results as given in paper PMC7576608, “Mechanisms of telomerase inhibition by oxidized and therapeutic dNTPs” (Nature Communications, 2020).
Where “and” joins values, the source holds several entries; their conditions need not be identical. Identical values can stand only once. Like-named read-outs stand apart in the source and are kept apart here.

Molecular target: telomerase (Homo sapiens, UniProt O14746)
Assay: Telomerase repeat processivity IC50: modified dNTP titrated into reactions with all four natural dNTPs
Type: biochemical
Set-up: made in house; anti-FLAG immunopurification, eluted with 3xFLAG peptide
Conditions: for YIntercept (line fit of ln(100-%LB) vs # telomere repeats) / ln(100-%LB): n1-n3; for Processivity R 1/2: replicates n1-n3
Excerpt: In order to better understand the ability of modified dNTPs to compete with natural dNTPs for telomerase utilization, we added modified dNTPs to reactions containing all four natural dNTPs. […] The calculated IC50 determines the concentration required to reduce repeat processivity in the bulk reactions by half. However, it is important to note that bulk experiments cannot distinguish effects on individual telomeres, since extended telomeres mask unextended telomeres. Incorporation of a chain terminator during any step will terminate extension of the affected telomere, and just five critically short telomeres are sufficient to trigger senescence. Therefore, repeat processivity IC50 values are not necessarily an indicator of the inhibitory potency, but provide information on selectivity for modified dNTPs compared to natural dNTPs. […] The ability to purify sufficient quantities of tcTERT enables characterization of the catalytic nucleotide addition by pre-steady-state single turnover kinetics using a defined DNA–RNA primer–template substrate. The catalytic efficiency of incorporating a single dNTP is measured by dividing the observed nucleotide incorporation rate constant, kpol, by the equilibrium dissociation constant for dNTP binding to the tcTERT–primer–template complex (Kd)[44].
The reactions were started by the addition of 3 μl of immunopurified telomerase eluent, incubated at 37 °C for 1 h, then terminated with 2 μl of […] and heat inactivated at 65 °C for 20 min. An equal volume of loading buffer (94% formamide, 0.1× TBE, 0.1% bromophenol blue, 0.1% xylene cyanol) was added to the reaction eluent. The samples were heat denatured for 10 min at 100 °C and loaded onto a 14% denaturing acrylamide gel (7 M urea, 1× TBE) and electrophoresed for 90 min at constant 38 W. Samples were imaged using a Typhoon phosphorimager (GE Healthcare). Percent primer extension was calculated with ImageQuant TL 8.2 by measuring the intensity of each product band and dividing by the total radioactivity in the lane or total products, as indicated in the figure legends.
The processivity was calculated as described[40],[67]. Repeat processivity from the direct telomerase extension assays was calculated as R1/2 (equivalent to the half-time for decay in an exponential time course), which represents the median length of DNA product formed, expressed in terms of number of telomere repeats. First, the total volume counts for each product band extend by one or more telomere repeats were obtained using Image Quant TL. The volume counts were then normalized by dividing by the number of radiolabeled guanosines incorporated into the extended products based on the number of repeats added, termed corrected volume (corr vol). The “percent left behind” (%LB) was calculated for each product band by summing the counts for that product band and for every product band below (shorter products), divided by the total counts for the lane, and then multiplied by 100. The natural log of (100−%LB) was calculated and then plotted vs. repeat number for each product length. A linear regression line was fit to the data to determine the slope of the line. The R1/2 value was calculated by dividing −ln(2) by the slope of each fitted line (R1/2 = −ln(2)/slope).
Supplementary Fig 8. IC50 values for telomerase processivity inhibition. Telomerase reactions were conducted with cellular relevant concentrations of all four natural dNTPs and increasing concentrations of the modified dNTP analog from 0 to 10,000 μM to calculate. (a) The natural log of (100-%LB) was plotted vs repeat number. A straight line was fit to the data and the R1/2 value was calculated by dividing –ln(2) by the slope of each line. Plots shown from one experiment are […]

[1] = fit of R 1/2 vs log(concentration), 8-oxo-dATP, replicates N1-N3

telomerase, sequence (O14746 whole entry): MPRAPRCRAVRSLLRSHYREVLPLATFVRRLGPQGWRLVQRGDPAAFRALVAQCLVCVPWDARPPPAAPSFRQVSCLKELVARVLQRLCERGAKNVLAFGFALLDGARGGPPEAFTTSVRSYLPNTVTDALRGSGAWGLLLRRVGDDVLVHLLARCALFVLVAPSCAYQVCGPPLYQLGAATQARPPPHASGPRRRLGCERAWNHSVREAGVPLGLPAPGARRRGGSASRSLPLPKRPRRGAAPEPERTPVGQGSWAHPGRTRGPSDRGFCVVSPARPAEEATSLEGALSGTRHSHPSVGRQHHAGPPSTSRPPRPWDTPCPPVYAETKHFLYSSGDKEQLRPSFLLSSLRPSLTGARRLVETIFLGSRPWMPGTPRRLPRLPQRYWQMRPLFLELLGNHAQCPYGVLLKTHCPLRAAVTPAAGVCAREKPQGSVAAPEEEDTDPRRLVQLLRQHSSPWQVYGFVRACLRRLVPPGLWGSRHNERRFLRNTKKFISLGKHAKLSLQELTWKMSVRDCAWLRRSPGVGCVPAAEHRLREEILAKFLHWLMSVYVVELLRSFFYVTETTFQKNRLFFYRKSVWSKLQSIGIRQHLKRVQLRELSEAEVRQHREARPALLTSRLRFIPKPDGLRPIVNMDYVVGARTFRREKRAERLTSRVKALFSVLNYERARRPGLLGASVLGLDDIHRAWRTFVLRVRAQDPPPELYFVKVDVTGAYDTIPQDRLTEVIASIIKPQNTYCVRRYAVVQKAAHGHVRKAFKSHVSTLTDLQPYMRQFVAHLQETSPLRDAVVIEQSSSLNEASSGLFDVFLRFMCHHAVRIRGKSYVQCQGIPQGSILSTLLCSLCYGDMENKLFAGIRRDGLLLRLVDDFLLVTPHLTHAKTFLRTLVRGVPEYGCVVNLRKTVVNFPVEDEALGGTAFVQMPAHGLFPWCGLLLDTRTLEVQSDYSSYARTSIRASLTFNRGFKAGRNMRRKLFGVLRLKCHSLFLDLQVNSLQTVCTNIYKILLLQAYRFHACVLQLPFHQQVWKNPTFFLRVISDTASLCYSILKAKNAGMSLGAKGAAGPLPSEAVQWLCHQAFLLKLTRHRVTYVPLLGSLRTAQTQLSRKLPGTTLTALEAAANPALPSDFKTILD

SMILES: Nc1ncnc2c1[nH]c(=O)n2C1CC(O)C(COP(=O)(O)OP(=O)(O)OP(=O)(O)O)O1 (centres unmarked) [8-oxo-dATP]
- YIntercept (line fit of ln(100-%LB) vs # telomere repeats) (8-oxo-dATP 31μM): 3.85 and 3.01 and 3.93
- ln(100-%LB) (8-oxo-dATP 31μM, telomere repeat 3): 2.65 and 1.66 and 2.57
- ln(100-%LB) (8-oxo-dATP 31μM, telomere repeat 4): 2.41 and 1.27 and 2.30
- Processivity R 1/2 (8-oxo-dATP 31.25 μM): 2.10 (2×) and 1.89
- YIntercept (line fit of ln(100-%LB) vs # telomere repeats) (8-oxo-dATP 62μM): 3.73 and 4.08 and 3.84
- ln(100-%LB) (8-oxo-dATP 62μM, telomere repeat 2): 3.20
- ln(100-%LB) (8-oxo-dATP 62μM, telomere repeat 3): 2.53 and 2.54 and 2.74
- ln(100-%LB) (8-oxo-dATP 62μM, telomere repeat 4): 2.27 and 2.24 and 2.50
- ln(100-%LB) (8-oxo-dATP 62μM, telomere repeat 5): 2.02 and 1.94 and 2.24
- ln(100-%LB) (8-oxo-dATP 62μM, telomere repeat 6): 1.71 and 1.56 and 1.91
- ln(100-%LB) (8-oxo-dATP 62μM, telomere repeat 7): 1.38 and 1.06 and 1.53
- ln(100-%LB) (8-oxo-dATP 62μM, telomere repeat 8): 1.13 and 0.68 and 1.26
- Processivity R 1/2 (8-oxo-dATP 62.5 μM): 1.60 (2×) and 2.26
- YIntercept (line fit of ln(100-%LB) vs # telomere repeats) (8-oxo-dATP 250μM): 3.94 and 3.80 and 3.85
- Processivity R 1/2 (8-oxo-dATP 250 μM): 1.82 (2×) and 2.54
- ln(100-%LB) (8-oxo-dATP 250μM, telomere repeat 2): 3.33 and 3.42 and 3.45
- ln(100-%LB) (8-oxo-dATP 250μM, telomere repeat 3): 2.64 and 2.77 and 2.84
- ln(100-%LB) (8-oxo-dATP 250μM, telomere repeat 4): 2.37 and 2.53 and 2.60
- ln(100-%LB) (8-oxo-dATP 250μM, telomere repeat 5): 2.09 and 2.29 and 2.37
- ln(100-%LB) (8-oxo-dATP 250μM, telomere repeat 6): 1.75 and 2.02 and 2.10
- ln(100-%LB) (8-oxo-dATP 250μM, telomere repeat 7): 1.29 and 1.68 and 1.81
- ln(100-%LB) (8-oxo-dATP 250μM, telomere repeat 8): 0.96 and 1.40 and 1.57
- ln(100-%LB) (8-oxo-dATP 250μM, telomere repeat 9): 0.67 and 1.15 and 1.32
- YIntercept (line fit of ln(100-%LB) vs # telomere repeats) (8-oxo-dATP 500μM): 3.61 and 4.18 and 3.88
- Processivity R 1/2 (8-oxo-dATP 500 μM): 1.42 (2×) and 2.03
- ln(100-%LB) (8-oxo-dATP 500μM, telomere repeat 2): 3.10 and 3.59 and 3.36
- ln(100-%LB) (8-oxo-dATP 500μM, telomere repeat 3): 2.50 and 3.01 and 2.60
- ln(100-%LB) (8-oxo-dATP 500μM, telomere repeat 4): 2.24 and 2.80 and 2.29
- ln(100-%LB) (8-oxo-dATP 500μM, telomere repeat 5): 1.94 and 2.56 and 2.01
- ln(100-%LB) (8-oxo-dATP 500μM, telomere repeat 6): 1.62 and 2.28 and 1.70
- ln(100-%LB) (8-oxo-dATP 500μM, telomere repeat 7): 1.26 and 1.91 and 1.22
- ln(100-%LB) (8-oxo-dATP 500μM, telomere repeat 8): 0.97 and 1.63 and 0.93
- YIntercept (line fit of ln(100-%LB) vs # telomere repeats) (8-oxo-dATP 750μM): 4.26 and 4.00 and 3.87
- Processivity R 1/2 (8-oxo-dATP 750 μM): 1.36 (2×) and 2.25
- ln(100-%LB) (8-oxo-dATP 750μM, telomere repeat 2): 3.17 and 3.44 and 3.29
- ln(100-%LB) (8-oxo-dATP 750μM, telomere repeat 3): 2.50 and 2.85 and 2.65
- ln(100-%LB) (8-oxo-dATP 750μM, telomere repeat 4): 2.17 and 2.63 and 2.39
- ln(100-%LB) (8-oxo-dATP 750μM, telomere repeat 5): 1.81 and 2.42 and 2.15
- ln(100-%LB) (8-oxo-dATP 750μM, telomere repeat 6): 1.40 and 2.17 and 1.87
- YIntercept (line fit of ln(100-%LB) vs # telomere repeats) (8-oxo-dATP 1000μM): 4.48 and 4.47 and 4.44
- Processivity R 1/2 (8-oxo-dATP 1000 μM): 0.53 (2×) and 0.83
- YIntercept (line fit of ln(100-%LB) vs # telomere repeats) (8-oxo-dATP 1500μM): 5.00 and 4.48 and 4.84
- Processivity R 1/2 (8-oxo-dATP 1500 μM): 0.00
- Processivity R 1/2 (8-oxo-dATP 2000 μM): 0.00
- IC50 (cellular relevant natural dNTPs, modified dNTP titrated 0 to 10,000 μM, based on repeat processivity, mean ± SD, read-out: Telomerase processivity IC50): 946 ± 49 µM
- LogIC50 (fit of R 1/2 vs log(concentration μM), 8-oxo-dATP, replicates N1-N3): 2.95 and 2.99 (2×)
- Bottom (best-fit value) [1]: -0.12 and 0.69 and -0.000954
- HillSlope [1]: -4.30 and -46.77 and -16.13
- Span (best-fit value) [1]: 1.94 and 1.65 and 2.29
- Top (best-fit value) [1]: 1.81 and 2.33 and 2.29
- IC50 (log of processivity IC50 (concentration in μM), Supplementary Fig 8b, read-out: Log IC50 (converted)): 794 µM
- IC50 (repeat processivity R 1/2, 8-oxo-dATP, mean of N1-N3, read-out: Mean IC50): 946 µM
- IC50 (repeat processivity R 1/2, 8-oxo-dATP, single replicates N1-N3, read-out: IC50): 890 µM and 982 µM and 966 µM
